# What was measured:
# Format in all cases: in vivo
# [1] = test system: pigweed (Amaranthus retroflexus); assay: Test A postemergence; conditions: Amaranthus retroflexus, post-emergence, 240 h, 125 g ai/ha, postemergence, visual injury rating after approximately 10 d; read-out: Pigweed plant response rating (0 to 100 scale, 0 no effect, 100 complete control)
# In short: (§1)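 Preemergence directed soil spray on seeded pots, or postemergence application to plants 2–10 cm, one- to two-leaf. Solvent mixture non-phytotoxic, with surfactant. Scored ~10 d later, visually, 0–100 vs untreated.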
# [2] = test system: ragweed (common ragweed, Ambrosia elatior); assay: Test A postemergence; conditions: Ambrosia artemisiifolia, post-emergence, 240 h, 125 g ai/ha, postemergence, visual injury rating after approximately 10 d; read-out: Ragweed plant response rating (0 to 100 scale, 0 no effect, 100 complete control)
# In short: as §1
# [3] = test system: ryegrass, Italian (Italian ryegrass, Lolium multiflorum); assay: Test A postemergence; conditions: Lolium multiflorum, post-emergence, 240 h, 125 g ai/ha, postemergence, visual injury rating after approximately 10 d; read-out: Ryegrass, Italian plant response rating (0 to 100 scale, 0 no effect, 100 complete control)
# In short: as §1
# [4] = test system: corn (Zea mays); assay: Test A postemergence; conditions: Zea mays, post-emergence, 240 h, 125 g ai/ha, postemergence, visual injury rating after approximately 10 d; read-out: Corn plant response rating (0 to 100 scale, 0 no effect, 100 complete control)
# In short: as §1
# [5] = test system: giant foxtail (Setaria faberii); assay: Test A postemergence; conditions: Setaria faberi, post-emergence, 240 h, 125 g ai/ha, postemergence, visual injury rating after approximately 10 d; read-out: Foxtail, Giant plant response rating (0 to 100 scale, 0 no effect, 100 complete control)
# In short: as §1
# [6] = test system: blackgrass (Alopecurus myosuroides); assay: Test A postemergence; conditions: Alopecurus myosuroides, post-emergence, 240 h, 125 g ai/ha, postemergence, visual injury rating after approximately 10 d; read-out: Blackgrass plant response rating (0 to 100 scale, 0 no effect, 100 complete control)
# In short: as §1
# [7] = test system: Kochia (Kochia scoparia); assay: Test A postemergence; conditions: Bassia scoparia, post-emergence, 240 h, 125 g ai/ha, postemergence, visual injury rating after approximately 10 d; read-out: Kochia plant response rating (0 to 100 scale, 0 no effect, 100 complete control)
# In short: as §1
# [8] = test system: barnyardgrass (Echinochloa crus-galli); assay: Test A postemergence; conditions: Echinochloa crus-galli, post-emergence, 240 h, 125 g ai/ha, postemergence, visual injury rating after approximately 10 d; read-out: Barnyardgrass plant response rating (0 to 100 scale, 0 no effect, 100 complete control)
# In short: as §1
# [9] = test system: wheat (Triticum aestivum); assay: Test A postemergence; conditions: Triticum aestivum, post-emergence, 240 h, 125 g ai/ha, postemergence, visual injury rating after approximately 10 d; read-out: Wheat plant response rating (0 to 100 scale, 0 no effect, 100 complete control)
# In short: as §1
# [10] = test system: Galium (catchweed bedstraw, Galium aparine); assay: Test A postemergence; conditions: Galium, post-emergence, 240 h, 125 g ai/ha, postemergence, visual injury rating after approximately 10 d; read-out: Galium plant response rating (0 to 100 scale, 0 no effect, 100 complete control)
# In short: as §1
# [11] = test system: pigweed (Amaranthus retroflexus); assay: Test A preemergence; conditions: Amaranthus retroflexus, pre-emergence, 240 h
# [12] = test system: ragweed (common ragweed, Ambrosia elatior); assay: Test A preemergence; conditions: Ambrosia artemisiifolia, pre-emergence, 240 h
# In short: as §1
# [13] = test system: ryegrass, Italian (Italian ryegrass, Lolium multiflorum); assay: Test A preemergence; conditions: Lolium multiflorum, pre-emergence, 240 h
# In short: as §1
# [14] = test system: giant foxtail (Setaria faberii); assay: Test A preemergence; conditions: Setaria faberi, pre-emergence, 240 h
# In short: as §1
# [15] = test system: Kochia (Kochia scoparia); assay: Test A preemergence; conditions: Bassia scoparia, pre-emergence, 240 h
# In short: as §1
# [16] = test system: barnyardgrass (Echinochloa crus-galli); assay: Test A preemergence; conditions: Echinochloa crus-galli, pre-emergence, 240 h
# In short: as §1
compound,measurement,setting,value
CC(C)c1cccc([C@H]2CN(C)C(=O)[C@@H]2C(=O)Nc2ccccc2S(C)(=O)=O)c1 [Compound 820],pest or weed control at 125 g/ha,[1],20%
same,pest or weed control at 125 g/ha,[2],20%
same,pest or weed control at 125 g/ha,[3],30%
same,plant injury at 125 g/ha,[4],30%
same,pest or weed control at 125 g/ha,[5],90%
same,pest or weed control at 125 g/ha,[6],40%
same,pest or weed control at 125 g/ha,[7],20%
same,pest or weed control at 125 g/ha,[8],90%
same,plant injury at 125 g/ha,[9],40%
same,pest or weed control at 125 g/ha,[10],30%
same,pest or weed control at 125 g/ha,"[11]; 125 g ai/ha, preemergence, 0 to 100 scale where 0 is no effect and 100 is complete control, read-out: Pigweed plant response rating",40%
same,pest or weed control at 500 g/ha,"[11]; 500 g ai/ha, Preemergence, visual injury vs untreated controls after approximately 10 d, read-out: Pigweed plant response rating (0 to 100 scale where 0 is no effect and 100 is complete control)",70%
same,pest or weed control at 125 g/ha,"[12]; 125 g ai/ha, preemergence, 0 to 100 scale where 0 is no effect and 100 is complete control, read-out: Ragweed plant response rating",20%
same,pest or weed control at 500 g/ha,"[12]; 500 g ai/ha, Preemergence, visual injury vs untreated controls after approximately 10 d, read-out: Ragweed plant response rating (0 to 100 scale where 0 is no effect and 100 is complete control)",60%
same,pest or weed control at 125 g/ha,"[13]; 125 g ai/ha, preemergence, 0 to 100 scale where 0 is no effect and 100 is complete control, read-out: Ryegrass, Italian plant response rating",60%
same,pest or weed control at 500 g/ha,"[13]; 500 g ai/ha, Preemergence, visual injury vs untreated controls after approximately 10 d, read-out: Ryegrass, Italian plant response rating (0 to 100 scale where 0 is no effect and 100 is complete control)",80%
same,pest or weed control at 125 g/ha,"[14]; 125 g ai/ha, preemergence, 0 to 100 scale where 0 is no effect and 100 is complete control, read-out: Foxtail, Giant plant response rating",90%
same,pest or weed control at 500 g/ha,"[14]; 500 g ai/ha, Preemergence, visual injury vs untreated controls after approximately 10 d, read-out: Foxtail, Giant plant response rating (0 to 100 scale where 0 is no effect and 100 is complete control)",100%
same,pest or weed control at 125 g/ha,"[15]; 125 g ai/ha, preemergence, 0 to 100 scale where 0 is no effect and 100 is complete control, read-out: Kochia plant response rating",70%
same,pest or weed control at 500 g/ha,"[15]; 500 g ai/ha, Preemergence, visual injury vs untreated controls after approximately 10 d, read-out: Kochia plant response rating (0 to 100 scale where 0 is no effect and 100 is complete control)",80%
same,pest or weed control at 125 g/ha,"[16]; 125 g ai/ha, preemergence, 0 to 100 scale where 0 is no effect and 100 is complete control, read-out: Barnyardgrass plant response rating",90%
same,pest or weed control at 500 g/ha,"[16]; 500 g ai/ha, Preemergence, visual injury vs untreated controls after approximately 10 d, read-out: Barnyardgrass plant response rating (0 to 100 scale where 0 is no effect and 100 is complete control)",100%

# From patent US12077503B2, “Substituted cyclic amides and their use as herbicides” (FMC CORPORATION, priority 2015, dated 2024)
